Reference: the NIST ThermoML archive (doi:10.1021/je800742d)
Numbers after ± are expanded uncertainties.

Details: Crystal; visual observation

For CN1CCN(c2cc3c(cc2F)c(=O)c(C(=O)O)cn3-c2ccc(F)cc2)CC1 [difloxacin], the Normal melting temperature was 278.00 ± 0.5 °C.
